Seven compounds from US20050107616A1, “Alpha-ketoamide derivatives as cathepsin k inhibitors” (priority 2001, published 2005) can be followed below.

Each structure is given as a SMILES string.

What all share (type): biochemical
Test [1] addresses human cathepsin B (Homo sapiens, UniProt P07858). Nature of the test: Cathepsin B inhibition assay, fluorogenic substrate Cbz-Phe-Arg-AMC. The note with it: Table 2; enzyme from human liver tissue, pH 5.5, 30° C., 10 μM substrate; read-out: hCat B Ki. On the procedure: (§1) All assays for cathepsin K were carried out with human and rat recombinant enzyme. Assays for cathepsins S Et V were also carried out with human recombinant enzyme. Assays for human cathepsins B. H. and L were carried out with enzyme, purchased from Athens Research and Technology, Inc., prepared from human liver tissue. Standard assay conditions for the determination of kinetic constants used a fluorogenic peptide substrate, typically (5S,8S)-13-amino-5-benzyl-13-imino-3-methylene-N-(4methyl-2-oxo-2H-chromen-7-yl)-6-oxo-1-phenyl-2-oxa-4,7,12-triazatridecane-8-carboxamide (Cbz-Phe-Arg-AMC), and were determined in 100 mM sodium acetate at pH 5.5 containing 10 mM dithiothreitol and 120 mM sodium chloride. A stock substrate solution of Cbz-Phe-Arg-AMC was prepared at a concentration of 50 mM in dimethyl sulfoxide. This substrate was diluted into the assay for a final substrate concentration of 10 μM in the rat cathepsin K, human cathepsin K, and human cathepsin B assays; a final substrate concentration of 5 μM in the human cathepsin L assay; and a final substrate concentration of 2 μM in the human cathepsin V assay.
(§2) All assays contained 10% dimethyl sulfoxide. […] All assays were conducted at 30° C. Product fluorescence (excitation at 360 nm; emission at 440 nm, (except cathepsin H which used excitation at 340 nm; emission at 420 nm)) was monitored with a PerSeptive Biosystems Cytofluor II fluorescence plate reader. Product progress curves were generated over 2.3 h monitoring the formation of 7-amino-4-methylcoumarin product (or β-naphthalamide for cathepsin H).
(§3) Potential inhibitors were evaluated using the progress curve method. Assays were carried out in the presence of variable concentrations of test compound. Reactions were initiated by addition of buffered solutions of inhibitor and substrate to enzyme. Data analysis was conducted according to one of two procedures depending on the appearance of the progress curves in the presence of inhibitors. For those compounds whose progress curves were linear, the enzymatic activity (RATE) was plotted against the concentration of test compound, including inhibitor concentration of zero ([I]=0), and the IC50 determined from a fit of equation 1 to the data, RATE=Vmax/(1+([I]/IC50)) (1) where Vmax is the best fit estimate of the maximal enzymatic activity. Ki values were calculated from IC50 values using equation 2 assuming a competitive model. [formula]

For test [2], the target named is T1, rat cathepsin K (Rattus norvegicus, UniProt O35186).
T1 construct: The proform of cathepsin K was converted to mature cathepsin K by brief exposure to pH 4; made in house; host or cells: baculovirus; Trichoplusia ni High Five cells (virus raised in Sf-9)
T1 sequence (O35186 115-329): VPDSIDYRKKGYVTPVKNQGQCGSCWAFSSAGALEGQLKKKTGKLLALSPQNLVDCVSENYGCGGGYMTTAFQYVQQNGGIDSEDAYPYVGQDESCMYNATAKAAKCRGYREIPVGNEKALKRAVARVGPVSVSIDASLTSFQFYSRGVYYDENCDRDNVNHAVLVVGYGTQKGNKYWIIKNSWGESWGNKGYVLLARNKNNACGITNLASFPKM
Nature of the test: Cathepsin K inhibition assay, fluorogenic substrate Cbz-Phe-Arg-AMC, progress curve method. The conditions noted are these: Table 2; rat recombinant enzyme, pH 5.5, 30° C., 10 μM substrate; read-out: rCat K Ki. Here is the method: as §1, §2
Scale-Up and Fermentation: The method of O'Reilly et al. (1994) was used for baculovirus expression with the following details. Two liters of Spodoptera frugiperda (Sf-9) cells (ATCC) were grown in Grace's Supplemented medium (Life Technologies) supplemented with 2 g/L glucose, 10% a fetal bovine serum (HyClone) and 0.10% pluronic F-68 (Life Technologies). Cells were grown in a 6 L shake flask at 150 RPM at 28° C. for 24 h to a density of 10^6 cells/mL, and then infected at a multiplicity of infection (MOI) of 0.1. The cells continued to grow for 72 h post-infection, before the virus was harvested by centrifugation at 1400× g for 30 min. Virus was titered as described (Summers and Smith, 1987).
One and one-half liters of Trichoplusia ni (T. ni) High Five (TM) cells [JRH Biosciences, Woodland, Calif. (adapted to suspension and serum-free medium)] grown in Excell 405 (TM) medium (JRH Biosciences) with 50 ug/mL gentamicin (Life Technologies) were added to a 15 L stirred tank reactor (Quark Enterprises, Inc) at a density of ˜0.5×10^6 cells/mL The cells were grown for 24 h at 28° C., 50 RPM, and 50% dissolved oxygen. Cells were then infected at a density of ˜10^6 cells/mL with an MOI of 1 and grown for 48 h post-infection. Media were separated from cells at a rate of 1 L/min using the Centritech 100 (TM) continuous-flow centrifuge (DuPont) operating at 200× g.
Protein Purification: Media (human and rat) were filtered through a Whatman 3 filter, and then loaded onto a 25 mL Poros HS II (26 mm×47 mm) cation exchange column equilibrated in 25 mM sodium acetate at pH 5.5 (equilibration buffer). The column was washed until the absorbance reached the baseline value, and then the protein was eluted with a linear gradient from 0-2 M sodium chloride in the equilibration buffer. Column fractions were analyzed by SDS-PAGE, N-terminal sequencing, and mass spectrometry. Fractions containing the proform of cathepsin K were pooled and frozen at −80° C. The proform was concentrated in an Amicon Centriprep 10 and fractionated with a Superdex 75 column (26 mm×600 mm, Pharmacia) equilibrated in 400 mM sodium chloride, 25 mM sodium acetate at pH 5.5.
Cathepsin K Activation: The proform of cathepsin K was converted to mature cathepsin K by brief exposure to pH 4 in the presence of 5 mM L-cysteine. […]

The target of test [3] is human cathepsin S (Homo sapiens, UniProt P25774). Nature of the test: Cathepsin S inhibition assay, fluorogenic substrate Cbz-Val-Val-Arg-AMC. The conditions noted are these: Table 2; human recombinant enzyme, pH 5.5, 30° C., 10 μM substrate; read-out: hCat S Ki. On the procedure: as §1
Chain of human cathepsin S (P25774 115-331): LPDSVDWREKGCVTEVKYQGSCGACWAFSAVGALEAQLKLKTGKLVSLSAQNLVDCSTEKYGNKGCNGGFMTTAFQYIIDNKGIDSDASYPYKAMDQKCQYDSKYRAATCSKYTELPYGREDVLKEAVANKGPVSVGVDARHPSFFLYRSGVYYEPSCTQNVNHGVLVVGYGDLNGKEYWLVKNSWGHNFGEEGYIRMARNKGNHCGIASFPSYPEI
A stock substrate solution of benzyl (1S)-1-{[((1S)-1-{[((1S)-4-{[amino(imino)methyl]amino}-1-{[(4-methyl-2-oxo-2H-chromen-7-yl)amino]carbonyl}butyl)amino]carbonyl}-2-methylpropyl)amino]carbonyl}-2-methylpropylcarbamate (Cbz-Val-Val-Arg-AMC) was prepared at a concentration of 10 mM in dimethyl sulfoxide. This substrate was diluted into the assay for a final substrate concentration of 10 μM in the human cathepsin S assay.
as §2, §3

Test [4] has as its target human cathepsin L (Homo sapiens, UniProt P07711). Nature of the test: Cathepsin L inhibition assay, fluorogenic substrate Cbz-Phe-Arg-AMC. The conditions noted are these: Table 2; enzyme from human liver tissue, pH 5.5, 30° C., 5 μM substrate; read-out: hCat L Ki. On the procedure: as §1, §2, §3
For test [5], the target named is human cathepsin H (Homo sapiens, UniProt P09668). Nature of the test: Cathepsin H inhibition assay, substrate L-Arg-β-naphthalamide. The conditions noted are these: Table 2; enzyme from human liver tissue, pH 5.5, 30° C.; read-out: hCat H Ki. On the procedure: as §1
Chain of human cathepsin H (P09668 116-335 limits assumed, other chains not shown): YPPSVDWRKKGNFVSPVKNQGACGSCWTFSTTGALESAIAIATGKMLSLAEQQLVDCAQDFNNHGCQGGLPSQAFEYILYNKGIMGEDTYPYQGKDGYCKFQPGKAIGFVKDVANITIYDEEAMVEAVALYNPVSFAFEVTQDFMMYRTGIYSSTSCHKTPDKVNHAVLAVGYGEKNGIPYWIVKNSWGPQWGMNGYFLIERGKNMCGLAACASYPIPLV
A stock substrate solution of (2S)-2-amino-5-{[amino(imino)methyl]amino}-N-(2-naphthyl)pentanamide hydrochloride (L-Arg-β-naphthalamide.HCl) was prepared at a concentration of 10 mM in dimethyl sulfoxide. This substrate was diluted into the assay for a final substrate concentration of […] in the cathepsin H assay.
as §2, §3

Chain of human cathepsin L (P07711 114-288 limits assumed): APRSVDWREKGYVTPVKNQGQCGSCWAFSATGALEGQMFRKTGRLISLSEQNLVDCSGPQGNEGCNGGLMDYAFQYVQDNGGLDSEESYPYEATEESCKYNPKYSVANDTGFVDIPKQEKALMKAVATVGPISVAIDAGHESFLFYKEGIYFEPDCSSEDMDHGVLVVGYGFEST
Chain of human cathepsin L (P07711 292-333 limits assumed): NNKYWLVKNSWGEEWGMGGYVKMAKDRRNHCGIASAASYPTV

Broadly, the Ki is a dissociation constant, usually derived from enzyme kinetics or from competition with a known ligand. Take `CCCC[C@H](NC(=O)O[C@H](Cn1cnc2cc(Cl)c(Cl)cc21)C(C)(C)C)C(=O)C(=O)Nc1ccn[nH]1` [Example 37, (1S)-1-[(5,6-dichloro-1H-benzimidazol-1-yl)methyl]-2,2-dimethylpropyl(1S)-1-[oxo(1H-pyrazol-5-ylamino)acetyl]pentylcarbamate]: the inhibition constant (Ki) in test [1] was in the range of 1 to 100 nM; in test [2], 0.01 to 1 nM; in test [3] it was 0.01 to 1 nM; in test [4] it was 0.01 to 1 nM; in test [5] it was 100 to 10000 nM.

On to `CCCC[C@H](NC(=O)O[C@H](Cn1cnc(-c2ccc(C(F)(F)F)cc2)c1)C(C)(C)C)C(=O)C(=O)Nc1ccnn1C1CCC1` [Example 35, (1S)-2,2-dimethyl-1-({4-[4-(trifluoromethyl)phenyl]-1H-imidazol-1-yl}methyl)propyl(1S)-1-[[(1-cyclobutyl-1H-pyrazol-5-yl)amino](oxo)acetyl]pentylcarbamate], for which the Ki in test [1] was 100 to 10000 nM; in test [2] it was 1 to 100 nM; in test [3], 1 to 100 nM; in test [4] it was 100 to 10000 nM; in test [5] it was 100 to 10000 nM.

In the case of `CCCC[C@H](NC(=O)O[C@H](c1nnc(-c2ccc(C(F)(F)F)cc2)o1)C(C)(C)C)C(=O)C(=O)Nc1ccn[nH]1` [Example 38, (1S)-2,2-dimethyl-1-{5-[4-(trifluoromethyl)phenyl]-1,3,4-oxadiazol-2-yl}propyl(1S)-1-[oxo(1H-pyrazol-5-ylamino)acetyl]pentylcarbamate], the inhibitory constant (Ki) in test [1] is 1 to 100 nM; in test [2] it was 1 to 100 nM; in test [3] it was 1 to 100 nM; in test [4] it was 1 to 100 nM; in test [5] it was 100 to 10000 nM.

Regarding `CCCC[C@H](NC(=O)O[C@H](Cc1nnc(-c2ccc(F)cc2)o1)C(C)(C)C)C(=O)C(=O)Nc1ccnn1C` (stereo in doubt) [Example 22, (1R)-1-{[5-(4-fluorophenyl)-1,3,4-oxadiazol-2-yl]methyl}-2,2-dimethylpropyl(1S)-1-[[(1-methyl-1H-pyrazol-5-yl)amino](oxo)acetyl]pentyl carbamate], the Ki in test [1], in test [2], in test [3] and in test [4] was 100 to 10000 nM throughout.

For the compound `CCCC[C@H](NC(=O)O[C@H](Cn1cnc(-c2ccc(C(F)(F)F)cc2)c1)C(C)(C)C)C(=O)C(=O)Nc1ccn[nH]1` [Example 7, (1S)-2,2-dimethyl-1-({4-[4-(trifluoromethyl)phenyl]-1H-imidazol-1-yl}methyl)propyl(1S)-1-[oxo(1H-pyrazol-5-ylamino)acetyl]pentylcarbamate], the inhibition constant (Ki) in test [1] was in the range of 1 to 100 nM; in test [2], 0.01 to 1 nM; in test [3], 0.01 to 1 nM; in test [4], 1 to 100 nM; in test [5], 100 to 10000 nM.

With `CCCC[C@H](NC(=O)O[C@H](Cn1ccc(-c2ccc(C(F)(F)F)cc2)n1)C(C)(C)C)C(=O)C(=O)Nc1ccn[nH]1` [Example 1], the inhibitory constant (Ki) in test [1] was 1 to 100 nM; in test [2], 0.01 to 1 nM; in test [3] it was 0.01 to 1 nM; in test [4], 1 to 100 nM; in test [5] it was 100 to 10000 nM.

Regarding `CCCC[C@H](NC(=O)O[C@H](c1nnc(-c2ccc(C(F)(F)F)cc2)o1)C(C)(C)C)C(=O)C(=O)NN1CCOC1=O` [Example 39, (1S)-2,2-dimethyl-1-{5-[4-(trifluoromethyl)phenyl]-1,3,4-oxadiazol-2-yl}propyl(1S)-1-{oxo[(2-oxo-1,3-oxazolidin-3-yl)amino]acetyl}pentylcarbamate], the Ki in test [1] was 1 to 100 nM; in test [2], 1 to 100 nM; in test [3], 1 to 100 nM; in test [4], 1 to 100 nM; in test [5], 100 to 10000 nM.
